Assay results as given in patent publication US11208416B2, “Selective inhibitors of protein arginine methytransterase 5 (PRMT5)” (Prelude Therapeutics, Incorporated, priority 2017, dated 2021).

How the values were obtained:
PRMT5/MEP50 complex = PRMT5/MEP50 complex (Homo sapiens (Human), UniProt O14744); experiment: Biochemical assay, PRMT5/MEP50 methylation of histone H2A with 3H-SAM; conditions: histone H2A 5 μM, PRMT5/MEP50 5 nM
Protocol: Biochemical Assay Protocol
Compounds were solubilized and 3-fold diluted in 100% DMSO. […] Standard reactions were performed in a total volume of […] assay buffer, with histone H2A (5 μM final) as substrate. To this was added the PRMT5/MEP50 complex diluted to provide a final assay concentration of 5 nM and the compounds were allowed to preincubate for 15 to 20 minutes at room temperature. The reaction was initiated by adding S-[3H-methyl]-adenosyl-L-methionine (PerkinElmer) to final concentration of […]. Following a 60 minutes incubation at 30° C., the reaction was stopped by adding 100 μL of 20% TCA. Each reaction was spotted onto filter plate (MultiScreen FB Filter Plate, Millipore), and washed 5 times with PBS buffer, Scintillation fluid was added to the filter plate and read in a scintillation counter. IC50 values were determined by fitting the data to the standard 4 parameters with Hill Slope using GraphPad Prism software.

sDMA = sDMA levels in tumor samples of Granta-519 mouse xenograft (Western blot); format: in vivo; conditions: 50 mg/kg orally QD
Protocol: Granta-519 cells was maintained in DMEM medium supplemented with 10% fetal bovine serum and 2 mM L-Glutamine at 37° C. in an atmosphere of 5% CO2 in air. Cells in exponential growth phase were harvested and 1×10^7 cells in 0.1 mL of PBS with Matrigel (1:1) were injected subcutaneously at the right lower flank region of each mouse for tumor development. The treatments were started when the mean tumor size reaches approximately 300-400 mm^3. […] Example 47 or vehicle (0.5% Na CMC+0.5% Tween80, suspension) were administered orally (QD for Example 47, QD for vehicle) at a dose of 30 mg/kg and 50 mg/kg for 19 and 16 days, respectively. Body weights and tumor size were measured every 3 to 4 days after randomization. Animals were euthanized 12 hours after last dosing, and blood and tumor samples were collected for analysis.
To measure sDMA levels in tumor samples, tumors from each mouse were weighted and homogenized in RIPA buffer supplemented with protease inhibitor (cOmplete™ EDTA-free Protease Inhibitor Cocktail, Roche). Lysate were centrifuged at 14,000 rpm for 30 min at 4° C. to remove debris. Total protein concentrations of lysate were determined by BCA assay (ThermoFisher Scientific, Catalog #: 23225). Equal amount of total proteins from each tumor were separated on SDS-PAGE gel, and sDMA levels were determined by WB as described previously.

[1] = test system: Symmetric Di-Methyl Arginine (sDMA); experiment: Western blot for sDMA marks in Granta cells (enzyme inhibition IC50); format: cell-based; conditions: Homo sapiens, 72 h; Granta-519 cell line, 3 days
Granta-519 cells = experiment: Cell proliferation assay on Granta-519 cells (CCK-8); format: cell-based; conditions: Homo sapiens, 240 h; Granta-519 cell line, day 10; read-out: Prolif. IC50
Protocol: Cell Proliferation Assay to Determine IC50 on Granta-519 Cells
Granta-519 cells were maintained in PRMI 1640 (Corning Cellgro, Catalog #: 10-040-CV) medium supplemented with 10% v/v FBS (GE Healthcare, Catalog #: SH30910.03). Compounds were dissolved in DMSO to make 10 mM stocks and stored at −20° C. Nine-point, 3-fold serial dilutions were made with DMSO with top concentration at 1 mM (working stocks).
On day of experiment, compound working stocks were further diluted at 1:50 with fresh medium in 96 well plate, and 10 μL of diluted drugs were added to a new 96 well plate for proliferation assay. Cells growing at exponential phase were spun down at 1500 rpm for 4 min and resuspend in fresh medium to reach a density of 0.5×10^6 cells/ml. 200 ul of cells were added to 96 well plate containing diluted drugs and incubated for 3 days. DMSO was used a vehicle control.
One day 3, 10 μL of Cell Counting Kit-8 (CCK-8, Jojindo, CK04-13) solution was added to a new 96 well plate. […] Plates were incubated in CO2 incubator for 2 hours and OD450 values were measured with a microplate reader (iMark microplate reader, Bio-Rad). […]
Percentage of viable cells, relative to DMSO vehicle control, were calculated and plotted in Graphpad Prism ([Inhibitor] vs. normalized response−Variable slope) to determine proliferation IC50 values on day 10.

Sequence of PRMT5/MEP50 complex (O14744 whole entry): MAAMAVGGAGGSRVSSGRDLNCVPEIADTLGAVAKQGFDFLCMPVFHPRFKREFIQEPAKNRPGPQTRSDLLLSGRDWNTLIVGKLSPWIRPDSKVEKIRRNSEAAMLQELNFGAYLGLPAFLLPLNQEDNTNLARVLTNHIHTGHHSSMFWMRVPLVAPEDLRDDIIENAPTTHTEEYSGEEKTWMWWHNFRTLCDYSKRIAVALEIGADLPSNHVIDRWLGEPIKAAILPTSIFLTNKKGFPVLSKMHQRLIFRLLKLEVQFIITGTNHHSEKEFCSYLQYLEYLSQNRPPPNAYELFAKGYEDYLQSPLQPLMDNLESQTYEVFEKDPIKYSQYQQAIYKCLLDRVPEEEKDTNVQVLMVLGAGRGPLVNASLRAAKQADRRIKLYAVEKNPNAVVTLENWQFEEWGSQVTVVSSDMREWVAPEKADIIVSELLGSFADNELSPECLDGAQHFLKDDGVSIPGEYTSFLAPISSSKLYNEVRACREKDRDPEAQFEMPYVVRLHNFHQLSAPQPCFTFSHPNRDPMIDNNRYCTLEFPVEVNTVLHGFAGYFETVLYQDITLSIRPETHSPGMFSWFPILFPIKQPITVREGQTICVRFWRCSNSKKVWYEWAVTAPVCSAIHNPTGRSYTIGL
Sequence of PRMT5/MEP50 complex (Q9BQA1 whole entry partner): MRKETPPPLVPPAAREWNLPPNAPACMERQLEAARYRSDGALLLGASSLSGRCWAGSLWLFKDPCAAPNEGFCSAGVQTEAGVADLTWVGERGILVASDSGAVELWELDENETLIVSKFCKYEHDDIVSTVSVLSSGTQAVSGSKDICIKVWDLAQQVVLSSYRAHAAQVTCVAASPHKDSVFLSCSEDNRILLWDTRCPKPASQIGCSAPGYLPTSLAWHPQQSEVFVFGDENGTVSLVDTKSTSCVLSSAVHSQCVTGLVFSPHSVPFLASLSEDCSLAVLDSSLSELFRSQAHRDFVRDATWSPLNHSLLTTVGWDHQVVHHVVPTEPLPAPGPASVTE

IC50 (PRMT5/MEP50 complex) [nM] | IC50 [1] [nM] | SMILES | sDMA level in tumor (sDMA) | IC50 (Granta-519 cells) [µM]
1610 | – | Cc1ncnc2c1ccn2[C@@H]1O[C@H](Cc2ccc(Cl)cc2CO)[C@@](C)(O)[C@H]1O [Example 64, (2R,3S,4R,5R)-2-[[4-chloro-2-(hydroxymethyl)phenyl]methyl]-3-methyl-5-(4-methylpyrrolo[2,3-d]pyrimidin-7-yl)tetrahydrofuran-3,4-diol] | – | –
– | – | C[C@@]1(O)[C@@H]([C@H](O)c2ccc(Cl)c(Cl)c2)O[C@@H](n2ccc3c(N)ncnc32)[C@@H]1O [Example 47, (2R,3S,4R,5R)-5-(4-amino-7H-pyrrolo[2,3-d]pyrimidin-7-yl)-2-((R)-(3,4-dichlorophenyl)(hydroxy)methyl)-3-methyltetrahydrofuran-3,4-diol] | no detectable sDMA | –
900 | 1000 | CSC[C@H]1O[C@@H](n2ccc3c(N)ncnc32)[C@H](O)[C@]1(C)O [Example 17, (2S,3S,4R,5R)-5-(4-amino-7H-pyrrolo[2,3-d]pyrimidin-7-yl)-3-methyl-2-((methylthio)methyl)tetrahydrofuran-3,4-diol] | – | 200
